# Experimental data taken from US10408783B2, “Electrochemical methods and compounds for the detection of enzymes” (GEORGIA STATE UNIVERSITY RESEARCH FOUNDATION, INC., priority 2014, dated 2019).
# Entries after “also recorded” stand apart in the source; their conditions may differ.
# Legend:
# [1] = test system: β-N-Acetylglucosaminidase; format: biochemical; details: substrate incubated with β-N-Acetylglucosaminidase
# [2] = test system: membrane free soluble N1 NA (strain H5N1 A/Anhui/1/2005); format: biochemical, influenza virus; details: 10 ng antiviral premixed 30 min before SG1
# [3] = test system: N2 NA (strain A/Babol/36/2005); test: Electrochemical assay, 3 electrode system: SG1 cleavage and drug susceptibility; format: biochemical, influenza virus; details: 10 ng antiviral premixed 30 min before SG1
# [4] = test system: H1N1 A/Brisbane/59/2007; test: as above; format: biochemical, Influenza A virus; details: 10 ng antiviral premixed 30 min before SG1
# [5] = test system: H3N2 A/Aichi/2/1968; test: as above; format: biochemical, Influenza A virus; details: 10 ng antiviral premixed 30 min before SG1
# [6] = test system: H3N2 A/HongKong/8/68; test: as above; format: biochemical, Influenza A virus; details: 10 ng antiviral premixed 30 min before SG1
# [7] = test system: α-L-Fucosidase; format: biochemical; details: substrate incubated with α-L-Fucosidase
# [8] = test system: H1N1 virus; test: Hydrolysis of sialylglucose by intact influenza virus, amperometric glucose measurement; format: biochemical; details: for current compared with glucose standard solution: H1N1 virus
# [9] = test system: H3N2 NA; format: biochemical, influenza virus; details: H3N2 NA overnight
# [10] = test system: H5N1 NA; format: biochemical, influenza virus; details: H5N1 NA overnight
# [11] = test system: H3N2 virus; test: Hydrolysis of sialylglucose by intact influenza virus, amperometric glucose measurement; format: biochemical; details: H3N2 virus overnight
# [12] = test system: influenza NA; test: Hydrolysis of the probe by influenza NA followed by mass spectroscopy; format: biochemical, influenza virus
# [13] = test system: H1N1 virus; test: Hydrolysis of the probe by intact influenza virus followed by mass spectrum; format: biochemical; details: pH 5.68, 37° C.
# [14] = test system: H3N2 virus; test: as above; format: biochemical; details: pH 5.68, 37° C.
# [15] = test system: α-Mannosidase; format: biochemical; details: substrate incubated with α-Mannosidase
# [16] = test system: β-Galactosidase; details: substrate incubated with β-Galactosidase
# [17] = H1N1 virus 1 h, 1 mM substrate, pH 5.68, 37° C.
structure (smiles),measurement,setting,value
CC(=O)NC1[C@@H](Oc2ccc(CO[C@@H]3OC(CO)[C@@H](O)[C@H](O)C3O)cc2)OC(CO)[C@@H](O)[C@@H]1O (some centres unmarked) [Substrate 24],"i, value of electrochemical assay",[1],11.1 ± 2.3 10^−8 A
CC(=O)NC1[C@H](Oc2ccc(CO[C@@H]3OC(CO)[C@@H](O)[C@H](O)C3O)cc2)OC(CO)[C@@H](O)[C@@H]1O (some centres unmarked) [Substrate 23],"i, value of electrochemical assay",[1],28.5 ± 4.0 10^−8 A
CCOC(=O)C1=C[C@@H](OC(CC)CC)[C@H](NC(C)=O)[C@@H](N)C1 [Oseltamivir],inhibition of NA (glucose release from SG1) by antiviral,[2],completely inhibited
same,inhibition of NA (glucose release from SG1) by antiviral,[3],completely inhibited
same,inhibition of NA (glucose release from SG1) by antiviral,[4],completely inhibited; also recorded: Glucose was not released
same,inhibition of NA (glucose release from SG1) by antiviral,[5],completely inhibited; also recorded: Glucose was not released
same,inhibition of NA (glucose release from SG1) by antiviral,[6],completely inhibited; also recorded: Glucose was not released
CC1O[C@@H](OCC2OC(O)C(O)[C@@H](O)[C@@H]2O)C(O)[C@@H](O)[C@@H]1O (some centres unmarked) [Substrate 25],"i, value of electrochemical assay",[7],44.5 ± 2.9 10^−8 A
"CC(=O)N[C@H]1[C@H]([C@H](O)[C@H](O)CO)O[C@@](OC[C@H]2O[C@H](O)[C@H](O)[C@@H](O)[C@@H]2O)(C(=O)O)C[C@@H]1O [sialylglucose, 5-acetamido-3,5-dideoxy-D-glycero-α-D-galacto-non-2-ulopyranosylonate-(2→6) α-D-glucopyranoside]",Calculated Glucose Concentration,[8]; [17],116.2 µM
same,Current,[8]; [17],1.262E−07 A
same,Calculated Glucose Concentration,[8]; H1N1 virus 5 h,126.6 µM
same,Current,[8]; H1N1 virus 5 h,1.366E−07 A
same,Calculated Glucose Concentration,[8]; H1N1 virus overnight,50.66 µM
same,Current,[8]; H1N1 virus overnight,6.066E−08 A
same,current compared with 1 h and 5 h samples,[8]; H1N1 virus overnight,significantly lower current
same,current compared with glucose standard solution,[8]; hydrolysis stopped at 1 h,~100 µM
same,current compared with glucose standard solution,[8]; hydrolysis stopped at 5 h,~100 µM
same,Calculated Glucose Concentration,[9],102.3 µM
same,Current,[9],1.123E−07 A
same,Calculated Glucose Concentration,[10],66.47 µM
same,Current,[10],7.647E−08 A
same,Calculated Glucose Concentration,[11],76.09 µM
same,Current,[11],8.609E−08 A
same,hydrolysis of the probe by NA (mass spectrum),"[12]; pH 5.68, 37° C., overnight",substrate peak could no longer be observed
same,hydrolysis of the probe by NA (mass spectrum),"[12]; pH 7.40, room temperature, overnight incubation",incomplete hydrolysis
same,hydrolysis by intact influenza virus (mass spectrum),[13],complete hydrolysis
same,hydrolysis by intact influenza virus (mass spectrum),[14],complete hydrolysis
OCC1O[C@@H](OCc2ccc(O[C@H]3OC(CO)[C@@H](O)[C@H](O)C3O)cc2)C(O)[C@@H](O)[C@@H]1O (some centres unmarked) [Substrate 20],"i, value of electrochemical assay",[15],81.0 ± 1.8 10^−8 A
same,"i, value of electrochemical assay",[16],10.2 ± 0.6 10^−8 A
